Literature values as cited in patent publication US8034838B2, “Composition and method for the treatment of neurological disorders” (priority 2008, dated 2011).

Key:
β-secretase = β-secretase (Homo sapiens, UniProt P56817)
[1] = after administration

β-secretase, sequence (P56817 46-501): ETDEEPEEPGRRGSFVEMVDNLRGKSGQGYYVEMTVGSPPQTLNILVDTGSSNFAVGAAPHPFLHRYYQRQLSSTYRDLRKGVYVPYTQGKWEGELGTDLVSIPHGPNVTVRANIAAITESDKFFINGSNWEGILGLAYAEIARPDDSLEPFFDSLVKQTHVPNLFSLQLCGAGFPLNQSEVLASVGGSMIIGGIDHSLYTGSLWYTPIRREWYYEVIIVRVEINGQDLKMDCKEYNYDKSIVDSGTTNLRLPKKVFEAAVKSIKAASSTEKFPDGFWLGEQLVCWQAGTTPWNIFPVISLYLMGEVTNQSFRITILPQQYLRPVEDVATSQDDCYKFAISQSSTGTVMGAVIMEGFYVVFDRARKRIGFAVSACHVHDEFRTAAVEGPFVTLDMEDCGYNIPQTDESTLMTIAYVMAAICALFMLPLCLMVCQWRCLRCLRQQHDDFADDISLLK

O=c1c(O)c(-c2cc(O)c(O)c(O)c2)oc2cc(O)cc(O)c12 [myricetin, Myricetin]
regulation of α-secretase (α-secretase): up-regulates | regulation of β-secretase (β-secretase): down-regulates | regulation of γ-secretase (γ-secretase): down-regulates | time to cross the blood brain barrier [1]: ≤ 30 min
